Assay results published in US8445512B2, “Substituted quinoline-3-carboxamides as KCNQ2/3 modulators” (Gruenenthal GmbH, priority 2010, dated 2013).

Target: T1, KCNQ2/3 channels (Homo sapiens, UniProt O43525+O43526)
T1 construct: expressed in transfected cells
Experiment: Fluorescence assay using a voltage sensitive dye (fluorimetry)
Assay type: cell-based
Details: CHO-K1 cells expressing KCNQ2/3 channels; for Emax: relative to retigabine = 100%, read-out: Fluorimetry % efficacy (retigabine = 100%)
Procedure: Method I. Fluorescence Assay Using a Voltage Sensitive Dye (Fluorimetry)
[…] CHO-K1 cells expressing KCNQ2/3 channels are cultivated adherently at 37° C., 5% CO2 and 95% humidity in cell culture bottles (e.g. 80 cm^2 TC flasks, Nunc) with DMEM-high glucose (Sigma Aldrich, D7777) including 10% FCS (PAN Biotech, e.g. 3302-P270521) or alternatively MEM Alpha Medium (1×, liquid, Invitrogen, #22571), 10% fetal calf serum (FCS) (Invitrogen, #10270-106, heat-inactivated) and the necessary selection antibiotics.
Before being sown out for the measurements, the cells are washed with 1×DPBS buffer Ca^2+/Mg^2+-free (e.g. Invitrogen, #14190-094) and detached from the bottom of the culture vessel by using Accutase (PAA Laboratories, #L11-007) (incubation with Accutase for 15 min at 37° C.). The cell number is determined using a CASY™ cell counter (TCC, Schärfe System). Depending on the optimal density for each individual cell line, 20,000-30,000 cells/well/100 μl are seeded onto 96-well Corning™ CellBIND™ assay plates (Flat Clear Bottom Black Polystyrene Microplates, #3340). Freshly seeded cells are then left to settle for one hour at room temperature, followed by incubation for 24 hours at 37° C., 5% CO2 and 95% humidity.
The voltage-sensitive fluorescent dye from the Membrane Potential Assay Kit (Red™ Bulk format part R8123 for FLIPR, MDS Analytical Technologies™) is prepared by dissolving the contents of one vessel Membrane Potential Assay Kit Red Component A in 200 ml of extracellular buffer (ES buffer, 120 mM NaCl, 1 mM KCl, 10 mM HEPES, 2 mM CaCl2, 2 mM MgCl2, 10 mM glucose; pH 7.4). After removal of the nutrient medium, the cells are washed once with 200 μl of ES buffer, then loaded for 45 min at room temperature in 100 μl of dye solution in the dark.
Fluorescence measurements are carried out in a BMG Labtech FLUOstar™, BMG Labtech NOVOstar™ or BMG Labtech POLARstar™ instrument (525 nm excitation, 560 nm emission, Bottom Read mode). After incubation with the dye, 50 μl of the test substances in the desired concentrations, or 50 μl of ES buffer for control purposes, are applied to the wells of the assay plate and incubated for 30 min at room temperature while being shielded from light. The fluorescence intensity of the dye is then measured for 5 min and the fluorescence value F1 of each well is thus determined at a given, constant time. 15 μl of a KCl solution are then added to each well (final concentration of potassium ions 92 mM). The change in fluorescence intensity is subsequently monitored until all the relevant values have been obtained (mainly 5-30 min). At a given time post KCl application, a fluorescence value F2 is determined, in this case at the time of the fluorescence peak.
For calculation, the fluorescence intensity F2 is corrected for the fluorescence intensity F1, and the activity (ΔF/F) of the target compound on the potassium channel is determined as follows:
In order to determine whether a substance has agonistic activity,
[formula] can be related to
[formula] of control wells.
[formula] is determined by adding to the well only the buffer solution instead of the test substance, determining the value F1K of the fluorescence intensity, adding the potassium ions as described above, and measuring a value F2K of the fluorescence intensity. F2K and F1K are then calculated as follows: […]
A substance has an agonistic activity on the potassium channel if
[formula] is greater than
Independently of the comparison of
[formula] it is possible to conclude that a target compound has agonistic activity if
[formula] increases dose dependently. Calculations of EC50 and IC50 values are carried out with the aid of ‘Prism v4.0’ software (GraphPad Software™) Method II. Low-Intensity Tail Flick Test (Rat)

Row | EC50 | Emax | SMILES
1 | 118 nM | 122% | Cc1c(C(=O)NCc2ccc(F)cc2)c(C2CC2)nc2cc(C#N)ccc12 [Example 38, 7-cyano-2-cyclopropyl-N-[(4-fluorophenyl)-methyl]-4-methyl-quinoline-3-carboxylic acid amide]
2 | 446 nM | 130% | C/C=C/c1nc2cc(C(F)(F)F)ccc2c(C)c1C(=O)NCc1cccc(F)c1 [Example 23, N-[(3-fluorophenyl)-methyl]-4-methyl-2-[(E)-prop-1-enyl]-7-(trifluoromethyl)-quinoline-3-carboxylic acid amide]
3 | 108 nM | 128% | Cc1c(C(=O)NCc2cccc(F)c2)c(C2CC2)nc2cc(C#N)ccc12 [Example 37, 7-Cyano-2-cyclopropyl-N-[(3-fluorophenyl)-methyl]-4-methyl-quinoline-3-carboxylic acid amide]
4 | 185 nM | 277% | CCCc1nc2cc(C(F)(F)F)ccc2c(C)c1C(=O)NCCCC(C)(C)C [Example 22, N-(4,4-Dimethyl-pentyl)-4-methyl-2-propyl-7-(trifluoromethyl)-quinoline-3-carboxylic acid amide]
5 | 317 nM | 133% | CCc1nc2cc(C(F)(F)F)ccc2c(C)c1C(=O)NCc1ccc(F)c(C)c1 [Example 32, 2-Ethyl-N-[(4-fluoro-3-methyl-phenyl)-methyl]-4-methyl-7-(trifluoromethyl)-quinoline-3-carboxylic acid amide]
6 | 1020 nM | 121% | CCc1nc2cc(C#N)ccc2c(C)c1C(=O)NCc1cccc(F)c1 [Example 33, 7-Cyano-2-ethyl-N-[(3-fluorophenyl)-methyl]-4-methyl-quinoline-3-carboxylic acid amide]
7 | 738 nM | 144% | CC(C)(C)c1nc2cc(C(F)(F)F)ccc2cc1C(=O)NCc1ccc(F)cc1 [Example 14, 2-tert-Butyl-N-[(4-fluorophenyl)-methyl]-7-(trifluoromethyl)-quinoline-3-carboxylic acid amide]
8 | 578 nM | 97% | CCc1nc2cc(C#N)ccc2c(C)c1C(=O)NCc1ccc(F)cc1 [Example 35, 7-Cyano-2-ethyl-N-[(4-fluorophenyl)-methyl]-4-methyl-quinoline-3-carboxylic acid amide]
9 | 152 nM | 137% | CC(C)c1nc2cc(C(F)(F)F)ccc2cc1C(=O)NCc1ccc(F)cc1 [Example 12, N-[(4-Fluorophenyl)-methyl]-2-isopropyl-7-(trifluoromethyl)-quinoline-3-carboxylic acid amide]
10 | 2880 nM | 102% | Cc1c(C(=O)NCc2cccc(F)c2)c(CO)nc2cc(C(F)(F)F)ccc12 [Example 17, N-[(3-fluorophenyl)-methyl]-2-(hydroxymethyl)-4-methyl-7-(trifluoromethyl)-quinoline-3-carboxylic acid amide]
11 | 829 nM | 125% | CC(C)(C)c1nc2cc(C(F)(F)F)ccc2cc1C(=O)NCc1cccc(F)c1 [Example 13, 2-tert-Butyl-N-[(3-fluorophenyl)-methyl]-7-(trifluoromethyl)-quinoline-3-carboxylic acid amide]
12 | 120 nM | 149% | Cc1c(C(=O)NCc2ccc(F)cc2)c(CC(C)(C)C)nc2cc(C(F)(F)F)ccc12 [Example 19, 2-(2,2-Dimethyl-propyl)-N-[(4-fluorophenyl)-methyl]-4-methyl-7-(trifluoromethyl)-quinoline-3-carboxylic acid amide]
13 | 93 nM | 138% | CCCc1nc2cc(C(F)(F)F)ccc2c(C)c1C(=O)NCc1cccc(F)c1 [Example 4, N-[(3-Fluorophenyl)-methyl]-4-methyl-2-propyl-7-(trifluoromethyl)-quinoline-3-carboxylic acid amide]
14 | 215 nM | 174% | Cc1c(C(=O)NCc2cccc(F)c2)c(C(C)C)nc2cc(C#N)ccc12 [Example 39, 7-Cyano-N-[(3-fluorophenyl)-methyl]-2-isopropyl-4-methyl-quinoline-3-carboxylic acid amide]
15 | 82 nM | 154% | Cc1c(C(=O)NCc2cccc(F)c2)c(CC(C)C)nc2cc(C(F)(F)F)ccc12 [Example 36, N-[(3-Fluorophenyl)-methyl]-4-methyl-2-(2-methyl-propyl)-7-(trifluoromethyl)-quinoline-3-carboxylic acid amide]
16 | 92 nM | 187% | Cc1c(C(=O)NCc2cccc(F)c2)c(CC(C)(C)C)nc2cc(C(F)(F)F)ccc12 [Example 18, 2-(2,2-dimethyl-propyl)-N-[(3-fluorophenyl)-methyl]-4-methyl-7-(trifluoromethyl)-quinoline-3-carboxylic acid amide]
17 | 312 nM | 139% | CCc1nc2cc(C(F)(F)F)ccc2c(C)c1C(=O)NCc1ccc(C)c(F)c1 [Example 34, 2-Ethyl-N-[(3-fluoro-4-methyl-phenyl)-methyl]-4-methyl-7-(trifluoromethyl)-quinoline-3-carboxylic acid amide]
18 | 327 nM | 104% | CCCc1nc2cc(C(F)(F)F)ccc2c(C)c1C(=O)NCC1CCCCCC1 [Example 2, N-(Cycloheptyl-methyl)-4-methyl-2-propyl-7-(trifluoromethyl)-quinoline-3-carboxylic acid amide]
19 | 246 nM | 166% | CC(C)c1nc2cc(C(F)(F)F)ccc2cc1C(=O)NCc1cccc(F)c1 [Example 11, N-[(3-Fluorophenyl)-methyl]-2-isopropyl-7-(trifluoromethyl)-quinoline-3-carboxylic acid amide]
20 | 190 nM | 163% | Cc1c(C(=O)NCc2ccc(F)cc2)c(C(C)C)nc2cc(C#N)ccc12 [Example 40, 7-Cyano-N-[(4-fluorophenyl)-methyl]-2-isopropyl-4-methyl-quinoline-3-carboxylic acid amide]
21 | 162 nM | 171% | CC(C)=Cc1nc2cc(C(F)(F)F)ccc2c(C)c1C(=O)NCc1cccc(F)c1 [Example 24, N-[(3-fluorophenyl)-methyl]-4-methyl-2-(2-methyl-prop-1-enyl)-7-(trifluoromethyl)-quinoline-3-carboxylic acid amide]
22 | 223 nM | 178% | Cc1c(C(=O)NCc2ccc(F)cc2)c(C2CCCC2)nc2cc(C(F)(F)F)ccc12 [Example 21, 2-Cyclopentyl-N-[(4-fluorophenyl)-methyl]-4-methyl-7-(trifluoromethyl)-quinoline-3-carboxylic acid amide]
23 | 1850 nM | 40% | Cc1c(C(=O)NCc2cccc(F)c2)c(CN(C)C)nc2cc(C(F)(F)F)ccc12 [Example 31, 2-(dimethylaminomethyl)-N-[(3-fluorophenyl)-methyl]-4-methyl-7-(trifluoromethyl)-quinoline-3-carboxylic acid amide]
24 | 49 nM | 185% | Cc1c(C(=O)NCc2cccc(F)c2)c(C2CCCC2)nc2cc(C(F)(F)F)ccc12 [Example 20, 2-Cyclopentyl-N-[(3-fluorophenyl)-methyl]-4-methyl-7-(trifluoromethyl)-quinoline-3-carboxylic acid amide]
25 | 160 nM | 140% | CCCc1nc2cc(C(F)(F)F)ccc2c(C)c1C(=O)NCc1cccs1 [Example 1, 4-Methyl-2-propyl-N-(thiophen-2-yl-methyl)-7-(trifluoromethyl)-quinoline-3-carboxylic acid amide]
